Assay results published in ChEMBL document CHEMBL5380822, “Design, Synthesis, and Biological Evaluation of Novel Hybrids Containing Dihydrochalcone as Tyrosinase Inhibitors to Treat Skin Hyperpigmentation” (J Med Chem, 2023).
Calls of active or inactive are those of the source. No cut-off for these calls is given here.

Key:
Mushroom tyrosinase [1] = molecular target: T1, Mushroom tyrosinase (Agaricus bisporus, UniProt O42713+Q00024+C7FF04+C7FF05); test: Inhibition of Agaricus bisporus tyrosinase using L-tyrosine as substrate preincubated with compound for 20 mins followed by substrate addition measured after 10 mins by absorbance based assay
Mushroom tyrosinase [2] = molecular target: T1, Mushroom tyrosinase; test: Inhibition of Agaricus bisporus tyrosinase using L-dopa as substrate preincubated with compound for 20 mins followed by substrate addition measured after 5 mins by absorbance based assay
B16-F10 [3] = test: Downregulation of TYR in mouse B16-F10 cells incubated for 72 hrs by Western blot analysis; assay type: functional, cell-based; conditions: dose 0.1-2 µM
Cavia porcellus [4] = test: Anti-melanogenic activity in guinea pig model of UV-induced skin pigmentation assessed as reduction in melanin production at 1 mM administered topically as PG formulation for 2 weeks measured after 3 days by Fontana-Masson staining based analysis; assay type: functional, organism-based; conditions: time 17.0 day
Cavia porcellus [5] = test: Anti-melanogenic activity in guinea pig model of UV-induced skin pigmentation assessed as healing of scorching skin administered topically for 2 weeks measured after 3 days by Fontana-Masson staining based analysis; assay type: functional, organism-based; conditions: dose 0.5-1 mM, time 17.0 day
A-375 [6] = test: Cytotoxicity against human A-375 cells at 50 uM incubated for 72 hrs by MTT assay; assay type: toxicity, cell-based; conditions: a-375, 72 h
[7] = Permeability in pig skin explant Franz diffusion cell model assessed as compound remaining intradermal at 2 mg/ml, TOPp measured after 2 hrs by HPLC analysis; assay type: ADME, tissue-based, Sus scrofa, Skin of body; conditions: topical_or_ocular
A-375 [8] = test: Anti-melanogenic activity against alpha-MSH-stimulated human A-375 cells assessed as decrease in melanin content at 20 uM incubated for 24 hrs by absorbance based assay; assay type: functional, cell-based
Cavia porcellus [9] = test: Anti-melanogenic activity in guinea pig model of UV-induced skin pigmentation assessed as inhibition of melanin production administered topically for 2 weeks measured after 3 days by Fontana-Masson staining based analysis; assay type: functional, organism-based; conditions: time 17.0 day
B16-F10 [10] = test: Anti-melanogenic activity against alpha-MSH-stimulated mouse B16-F10 cells assessed as decrease in melanin content incubated for 24 hrs by absorbance based assay; assay type: functional, cell-based; conditions: dose 5-25 µM
Cavia porcellus [11] = test: Anti-melanogenic activity in guinea pig model of UV-induced skin pigmentation assessed as reduction in melanin production at 1 mM administered topically as CP formulation for 2 weeks measured after 3 days by Fontana-Masson staining based analysis; assay type: functional, organism-based; conditions: time 17.0 day
[12] = Permeability in pig skin explant Franz diffusion cell model assessed as compound remaining intradermal at 2 mg/ml, TOPp measured after 4 hrs by HPLC analysis; assay type: ADME, tissue-based, Sus scrofa, Skin of body; conditions: topical_or_ocular
[13] = molecular target: T2, Tyrosinase (Homo sapiens) (UniProt P14679); test: Inhibition of TYR in alpha-MSH-stimulated human A-375 cells using L-Dopa as substrate at 20 uM incubated for 24 hrs by absorbance based assay; assay type: cell-based
T2 sequence (whole entry): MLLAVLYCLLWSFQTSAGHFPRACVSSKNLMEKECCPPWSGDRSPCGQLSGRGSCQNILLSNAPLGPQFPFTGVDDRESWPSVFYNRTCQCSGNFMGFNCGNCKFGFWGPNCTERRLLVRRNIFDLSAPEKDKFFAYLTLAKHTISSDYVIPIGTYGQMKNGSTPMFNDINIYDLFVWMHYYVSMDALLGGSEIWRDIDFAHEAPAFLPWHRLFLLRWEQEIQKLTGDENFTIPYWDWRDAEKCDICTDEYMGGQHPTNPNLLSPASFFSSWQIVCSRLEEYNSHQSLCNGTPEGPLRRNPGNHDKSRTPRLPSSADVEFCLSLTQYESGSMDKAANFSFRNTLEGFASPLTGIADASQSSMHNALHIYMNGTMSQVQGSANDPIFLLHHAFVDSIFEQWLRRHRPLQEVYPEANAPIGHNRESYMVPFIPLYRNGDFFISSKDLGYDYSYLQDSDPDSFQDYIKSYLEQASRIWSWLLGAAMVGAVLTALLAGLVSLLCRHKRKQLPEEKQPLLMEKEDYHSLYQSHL

[14] = Permeability in pig skin explant Franz diffusion cell model assessed as compound remaining transdermal at 2 mg/ml, TOPp measured for 0.5 to 24 hrs by HPLC analysis; assay type: ADME, tissue-based, Sus scrofa, Skin of body; conditions: topical_or_ocular, time 0.5-24 hrs
[15] = Drug distribution in pig skin epidermis at 2 mg/ml, TOPp measured after 2 hrs by OrbiSIMS imaging analysis; assay type: ADME, tissue-based, Sus scrofa; conditions: topical_or_ocular
B16-F10 [16] = test: Downregulation of MiTF level in mouse B16-F10 cells incubated for 72 hrs by Western blot analysis; assay type: functional, cell-based; conditions: dose 0.1-2 µM
[17] = molecular target: T3, Tyrosinase (Mus musculus) (UniProt P11344); test: Inhibition of TYR in alpha-MSH-stimulated mouse B16-F10 cells using L-Dopa as substrate incubated for 24 hrs by absorbance based assay; assay type: cell-based; conditions: dose 5-25 µM
T3 sequence (whole entry): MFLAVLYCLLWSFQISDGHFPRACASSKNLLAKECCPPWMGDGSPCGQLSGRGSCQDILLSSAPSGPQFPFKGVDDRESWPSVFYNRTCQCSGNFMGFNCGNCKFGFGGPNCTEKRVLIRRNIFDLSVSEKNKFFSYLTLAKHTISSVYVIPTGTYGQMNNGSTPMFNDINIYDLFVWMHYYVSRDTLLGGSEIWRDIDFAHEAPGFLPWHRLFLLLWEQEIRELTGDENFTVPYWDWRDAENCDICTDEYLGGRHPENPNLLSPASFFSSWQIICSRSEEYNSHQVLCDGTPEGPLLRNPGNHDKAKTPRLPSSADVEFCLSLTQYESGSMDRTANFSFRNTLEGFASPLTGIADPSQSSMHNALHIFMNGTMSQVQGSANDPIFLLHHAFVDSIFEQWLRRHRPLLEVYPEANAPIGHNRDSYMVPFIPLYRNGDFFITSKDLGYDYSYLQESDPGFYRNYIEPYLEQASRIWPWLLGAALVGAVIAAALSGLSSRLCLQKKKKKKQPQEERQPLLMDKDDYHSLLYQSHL

B16-F10 [18] = test: Cytotoxicity against mouse B16-F10 cells at 50 uM incubated for 72 hrs by MTT assay; assay type: toxicity, cell-based; conditions: b16-f10, 72 h

| Structure (SMILES) | IC50 (Mushroom tyrosinase [1]) | IC50 (Mushroom tyrosinase [2]) | further results |
| --- | --- | --- | --- |
| O=C(CCc1cccc(O)c1)c1ccc(O)cc1O | > 10 µM | > 10 µM |  |
| COc1ccc(C(=O)CCc2ccc(O)cc2)c(O)c1 | > 10 µM | > 10 µM |  |
| O=C(CCc1ccc(O)cc1O)c1ccc(O)cc1O | 0.05 µM | 0.064 µM | Activity (B16-F10 [3]): Dose-Dependent Effect; Activity (Cavia porcellus [4]): Active; Activity (Cavia porcellus [5]): Dose-Dependent Effect; Activity (A-375 [6]): Toxic; Activity [7]: 26.77%; Activity (A-375 [8]): Active; Activity (Cavia porcellus [9]): Dose-Dependent Effect; Activity (B16-F10 [10]): Dose-Dependent Effect; Activity (Cavia porcellus [11]): Active; Activity [12]: 3.56%; inhibition [13]: Active; Activity [14]: 1.2%; Drug uptake [15]: Active; Activity (B16-F10 [16]): Dose-Dependent Effect; inhibition [17]: Dose-Dependent Effect; Activity (B16-F10 [18]): Non-Toxic |
| COc1cc(C(=O)CCc2ccc(O)cc2O)ccc1O | 0.054 µM | 0.165 µM | Activity (A-375 [6]): Non-Toxic; Activity (A-375 [8]): Active; Activity (B16-F10 [10]): Dose-Dependent Effect; inhibition [13]: Active; inhibition [17]: Dose-Dependent Effect; Activity (B16-F10 [18]): Non-Toxic |
| COc1ccc(CCC(=O)c2ccc(O)cc2O)cc1OC | > 10 µM | > 10 µM |  |
| CC(C)c1ccc(C(=O)CCc2ccc(O)cc2O)cc1 | 0.232 µM | 0.644 µM |  |
| COc1ccc(C(=O)CCc2ccccc2O)cc1 | > 10 µM | > 10 µM |  |
| COc1ccc(C(=O)CCc2ccc(O)cc2O)cc1O | 0.069 µM | 0.245 µM |  |
| COc1ccc(C(=O)CCc2ccc(OC)cc2OC)cc1 | > 10 µM | > 10 µM |  |
| COc1ccc(CCC(=O)c2ccc(O)cc2O)c(O)c1 | > 10 µM | > 10 µM |  |
| COc1ccc(CCC(=O)c2ccc(O)cc2O)c(OC)c1 | > 10 µM | > 10 µM |  |
| O=C(CCc1ccc(O)c(O)c1)c1ccc(O)cc1O | > 10 µM | > 10 µM |  |
| COc1cccc(CCC(=O)c2ccc(O)cc2O)c1 | > 10 µM | > 10 µM |  |
| O=C(CCc1ccc(O)cc1)c1ccc(O)cc1O [DAVIDIGENIN] | > 10 µM | > 10 µM |  |
| COc1ccc(C(=O)CCc2ccc(O)cc2O)c(O)c1 | 0.069 µM | 0.183 µM |  |
| O=C(CCc1ccc(O)cc1O)c1ccccc1 | 0.183 µM | 0.625 µM |  |
| O=C(CCc1cccc([N+](=O)[O-])c1)c1ccc(O)cc1O | > 10 µM | > 10 µM |  |

| Structure (SMILES) | IC50 (Mushroom tyrosinase [1]) | IC50 (Mushroom tyrosinase [2]) | further results |
| --- | --- | --- | --- |
| COc1cccc(CCC(=O)c2ccc(O)cc2O)c1OC | > 10 µM | > 10 µM |  |
| Cc1cccc(C(=O)CCc2ccc(O)cc2O)c1 | 0.133 µM | 0.189 µM |  |
| O=C(CCc1ccc(O)cc1O)c1ccc(O)cc1 | 0.072 µM | 0.212 µM |  |
| COc1ccc(C(=O)CCc2ccc(O)cc2O)cc1 | 0.089 µM | 0.171 µM |  |
| COc1ccc(C(=O)CCc2ccccc2O)c(O)c1 | > 10 µM | > 10 µM |  |
| O=C(CCc1ccc(O)cc1O)c1ccc(Cl)cc1Cl | 0.119 µM | 0.189 µM |  |
| O=C(CCc1ccc(O)cc1O)c1ccccc1O | 0.069 µM | 0.286 µM |  |
| COc1ccc(CCC(=O)c2ccc(O)cc2O)cc1O | > 10 µM | > 10 µM |  |
| O=C(CCc1ccc(O)cc1O)c1ccc(Br)cc1 | 0.11 µM | 0.184 µM |  |
| Cc1ccccc1CCC(=O)c1ccc(O)cc1O | > 10 µM | > 10 µM |  |
| Cc1ccccc1C(=O)CCc1ccc(O)cc1O | 0.123 µM | 0.239 µM |  |
| O=C(CCc1ccc(O)cc1O)c1ccc(-c2ccccc2)cc1 | 0.331 µM | 1.431 µM |  |
| COc1cc(CCC(=O)c2ccc(O)cc2O)cc(OC)c1OC | > 10 µM | > 10 µM |  |
| O=C(CCc1ccccc1O)c1ccc(O)cc1O | > 10 µM | > 10 µM |  |
| COc1ccc(CCC(=O)c2ccc(O)cc2O)c(OC)c1OC | > 10 µM | > 10 µM |  |
| COc1ccc(C(=O)CCc2ccc(O)cc2)cc1 | > 10 µM | > 10 µM |  |
